The NIST ThermoML archive (doi:10.1016/j.tca.2014.03.019)
Numbers after ± are expanded uncertainties.

What was measured:
[1] = Molar enthalpy of transition or fusion; conditions: Crystal; DSC
[2] = Crystal; for vapor or sublimation pressure: Transpiration method; for Normal melting temperature: DTA

In the case of CC(=O)Nc1ccccc1C(=O)O [2-acetamidobenzoic acid], the “Molar enthalpy of transition or fusion” value [1] is reported as 11.8 ± 0.239 kcal/mol, the “vapor or sublimation pressure” value ([2]; 344.7 K) is reported as 1.66e-05 ± 9e-07 kPa and the “vapor or sublimation pressure” value ([2]; 351.3 K) is reported as 3.37e-05 ± 1.8e-06 kPa. For the same compound, the “vapor or sublimation pressure” value ([2]; 357.3 K) was 5.58e-05 ± 2.9e-06 kPa, the “vapor or sublimation pressure” value ([2]; 363.5 K) was 0.000111 ± 6e-06 kPa and the “vapor or sublimation pressure” value ([2]; 363.8 K) was 0.000116 ± 6e-06 kPa. For the same compound, the “vapor or sublimation pressure” value ([2]; 366.2 K) was 0.000138 ± 7e-06 kPa, the “vapor or sublimation pressure” value ([2]; 369.7 K) was 0.000235 ± 1.2e-05 kPa and the “vapor or sublimation pressure” value ([2]; 371 K) was 0.000243 ± 1.2e-05 kPa. The “vapor or sublimation pressure” value ([2]; 373.5 K) was 0.000289 ± 1.5e-05 kPa, the “vapor or sublimation pressure” value ([2]; 377.4 K) was 0.000555 ± 2.8e-05 kPa and the “vapor or sublimation pressure” value ([2]; 380 K) was 0.000571 ± 2.9e-05 kPa. For the same compound, the “vapor or sublimation pressure” value ([2]; 383.8 K) was 0.000948 ± 4.8e-05 kPa, the “vapor or sublimation pressure” value ([2]; 387.2 K) was 0.00117 ± 6e-05 kPa and the “vapor or sublimation pressure” value ([2]; 390.4 K) was 0.00152 ± 8e-05 kPa. For the same compound, the “vapor or sublimation pressure” value ([2]; 393.5 K) was 0.00198 ± 0.0001 kPa and the Normal melting temperature [2] was 185.2 ± 1.1 °C.
With CC(=O)Nc1cccc(C(=O)O)c1 [3-(acetylamino)benzoic acid] the “Molar enthalpy of transition or fusion” value [1] was 9.42 ± 0.215 kcal/mol, the “vapor or sublimation pressure” value ([2]; 407.2 K) was 2.67e-05 ± 1.4e-06 kPa and the “vapor or sublimation pressure” value ([2]; 410.9 K) was 4.67e-05 ± 2.4e-06 kPa. The “vapor or sublimation pressure” value ([2]; 414.1 K) was 5.62e-05 ± 2.9e-06 kPa, the “vapor or sublimation pressure” value ([2]; 416.6 K) was 6.27e-05 ± 3.2e-06 kPa and the “vapor or sublimation pressure” value ([2]; 420.9 K) was 0.000102 ± 5e-06 kPa. The “vapor or sublimation pressure” value ([2]; 423.6 K) was 0.000114 ± 6e-06 kPa, the “vapor or sublimation pressure” value ([2]; 426.8 K) was 0.000148 ± 8e-06 kPa and the “vapor or sublimation pressure” value ([2]; 427.3 K) was 0.000187 ± 1e-05 kPa. The “vapor or sublimation pressure” value ([2]; 430.6 K) was 0.000246 ± 1.2e-05 kPa, the “vapor or sublimation pressure” value ([2]; 433 K) was 0.000315 ± 1.6e-05 kPa and the “vapor or sublimation pressure” value ([2]; 434.8 K) was 0.000374 ± 1.9e-05 kPa. For the same compound, the “vapor or sublimation pressure” value ([2]; 436.1 K) was 0.000403 ± 2e-05 kPa, the “vapor or sublimation pressure” value ([2]; 440.1 K) was 0.00051 ± 2.6e-05 kPa and the “vapor or sublimation pressure” value ([2]; 442.9 K) was 0.000663 ± 3.3e-05 kPa. For the same compound, the Normal melting temperature [2] was 245.1 ± 2.1 °C.
With CC(=O)Nc1ccc(C(=O)O)cc1 [4-acetamidobenzoic acid] the “Molar enthalpy of transition or fusion” value [1] was 8.17 ± 0.191 kcal/mol, the “vapor or sublimation pressure” value ([2]; 395 K) was 1.43e-05 ± 8e-07 kPa and the “vapor or sublimation pressure” value ([2]; 398.2 K) was 2.1e-05 ± 1.2e-06 kPa. For the same compound, the “vapor or sublimation pressure” value ([2]; 398.5 K) was 2.09e-05 ± 1.1e-06 kPa, the “vapor or sublimation pressure” value ([2]; 402.5 K) was 2.92e-05 ± 1.6e-06 kPa and the “vapor or sublimation pressure” value ([2]; 405.5 K) was 3.48e-05 ± 1.8e-06 kPa. For the same compound, the “vapor or sublimation pressure” value ([2]; 409.1 K) was 5.24e-05 ± 2.7e-06 kPa, the “vapor or sublimation pressure” value ([2]; 412.1 K) was 6.72e-05 ± 3.5e-06 kPa and the “vapor or sublimation pressure” value ([2]; 415.3 K) was 0.0001 ± 5e-06 kPa. For the same compound, the “vapor or sublimation pressure” value ([2]; 418.9 K) was 0.000126 ± 6e-06 kPa, the “vapor or sublimation pressure” value ([2]; 422.1 K) was 0.000193 ± 1e-05 kPa and the “vapor or sublimation pressure” value ([2]; 425 K) was 0.000227 ± 1.1e-05 kPa. For the same compound, the “vapor or sublimation pressure” value ([2]; 428.5 K) was 0.000352 ± 1.8e-05 kPa, the “vapor or sublimation pressure” value ([2]; 431.7 K) was 0.000393 ± 2e-05 kPa and the “vapor or sublimation pressure” value ([2]; 436.2 K) was 0.000775 ± 3.9e-05 kPa. The “vapor or sublimation pressure” value ([2]; 440 K) was 0.000934 ± 4.7e-05 kPa and the Normal melting temperature [2] was 262.1 ± 2.1 °C.
